The source made the active and inactive calls. No cut-off for these calls is given here.
Experiments:
Influenza A virus [1] = assay: Antiviral activity against influenza A virus A/WSN/33-S31N infected in dog MDCK cells after 2 days by naphthalene black dye staining based plaque reduction assay; format: functional, organism-based
Influenza A virus [2] = assay: Antiviral activity against wild type influenza A virus A/WSN/33-N31S infected in dog MDCK cells at 1 uM after 2 days by naphthalene black dye staining based plaque reduction assay; format: functional, organism-based

| SMILES | EC50 (Influenza A virus [1]) | inhibition (Influenza A virus [2]) |
| --- | --- | --- |
| NC12CC3CC(CC(C3)C1)C2 [AMANTADINE] | 22.5 µM | – |
| Oc1ccc(CNC23CC4CC(CC(C4)C2)C3)c(O)c1 | 3.2 µM | Active |

Source: ChEMBL document CHEMBL2321761, “Discovery of novel dual inhibitors of the wild-type and the most prevalent drug-resistant mutant, S31N, of the M2 proton channel from influenza A virus” (J Med Chem, 2013)
